pIC50: −log10 of the molar value. In brackets after ≈: the same amount, converted by molar mass. Activity calls are given as the source filed them. No cut-off for these calls is given here.
Tests used:
[1] = Apparent permeability across apical to basolateral side in dog MDCK cells; assay type: ADME, cell-based, Canis lupus familiaris
[2] = Plasma protein binding in human relative to control; assay type: ADME, cell-free; settings: read-out: PPB (converted)
[3] = Hepatic toxicity in cynomolgus monkey upto 500 mg/kg/day measured for 14 days; assay type: organism-based, Macaca fascicularis; settings: in vivo, 336 h, time 14 day
hERG (KCNH2) [4] = target: T1, hERG (KCNH2) (Homo sapiens, UniProt Q12809); test: Inhibition of hERG at 10 uM relative to control; assay type: toxicity
T1 sequence (Q12809 whole entry): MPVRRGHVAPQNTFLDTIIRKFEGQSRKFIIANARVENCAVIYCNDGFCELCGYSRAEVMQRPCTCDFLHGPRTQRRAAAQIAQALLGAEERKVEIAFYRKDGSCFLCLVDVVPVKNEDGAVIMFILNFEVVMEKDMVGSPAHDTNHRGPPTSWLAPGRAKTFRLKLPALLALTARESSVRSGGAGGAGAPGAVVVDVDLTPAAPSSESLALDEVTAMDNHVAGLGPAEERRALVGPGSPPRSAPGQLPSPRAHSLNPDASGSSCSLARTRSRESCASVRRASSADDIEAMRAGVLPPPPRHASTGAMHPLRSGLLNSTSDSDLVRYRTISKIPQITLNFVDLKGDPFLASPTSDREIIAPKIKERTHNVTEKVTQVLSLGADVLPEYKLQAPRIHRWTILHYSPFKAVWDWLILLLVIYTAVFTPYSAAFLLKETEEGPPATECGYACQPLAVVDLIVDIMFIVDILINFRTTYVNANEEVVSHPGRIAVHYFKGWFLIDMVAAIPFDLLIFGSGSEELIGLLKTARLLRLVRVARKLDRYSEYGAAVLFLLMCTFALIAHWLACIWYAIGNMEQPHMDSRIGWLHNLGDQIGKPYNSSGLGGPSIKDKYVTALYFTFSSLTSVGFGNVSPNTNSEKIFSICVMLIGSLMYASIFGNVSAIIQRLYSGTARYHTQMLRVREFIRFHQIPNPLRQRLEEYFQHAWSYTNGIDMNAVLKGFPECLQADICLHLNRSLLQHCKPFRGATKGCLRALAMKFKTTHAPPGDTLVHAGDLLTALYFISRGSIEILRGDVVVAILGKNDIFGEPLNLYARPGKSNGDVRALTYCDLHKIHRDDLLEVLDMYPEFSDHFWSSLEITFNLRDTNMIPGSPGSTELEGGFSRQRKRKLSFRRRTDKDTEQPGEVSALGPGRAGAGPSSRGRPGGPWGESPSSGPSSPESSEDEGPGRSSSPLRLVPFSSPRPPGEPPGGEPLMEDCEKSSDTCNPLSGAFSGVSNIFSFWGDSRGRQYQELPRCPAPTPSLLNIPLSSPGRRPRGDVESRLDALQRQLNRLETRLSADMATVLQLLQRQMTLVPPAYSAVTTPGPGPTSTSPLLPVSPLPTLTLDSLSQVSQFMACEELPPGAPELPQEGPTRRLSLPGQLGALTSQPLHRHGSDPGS

[5] = Half life in Beagle dog at 1 mg/kg, iv measured upto 24 hrs by LC-MS/MS analysis; assay type: ADME, organism-based, Canis lupus familiaris; settings: in vivo
[6] = Volume of distribution at steady state in Beagle dog at 1 mg/kg, po or 1 mg/kg, iv measured upto 24 hrs by LC-MS/MS analysis; assay type: ADME, organism-based, Canis lupus familiaris; settings: in vivo
[7] = Plasma protein binding in cynomolgus monkey relative to control; assay type: ADME, cell-free, Macaca fascicularis; settings: read-out: PPB (converted)
[8] = Renal toxicity in cynomolgus monkey upto 500 mg/kg/day measured for 14 days; assay type: organism-based, Macaca fascicularis; settings: in vivo, 336 h, time 14 day
[9] = Plasma protein binding in rat relative to control; assay type: ADME, cell-free; settings: read-out: PPB (converted)
[10] = Volume of distribution at steady state in cynomolgus monkey at 1 mg/kg, po or 1 mg/kg, iv measured upto 24 hrs by LC-MS/MS analysis; assay type: ADME, organism-based, Macaca fascicularis; settings: in vivo
[11] = Plasma protein binding in dog relative to control; assay type: ADME, cell-free, Canis lupus familiaris; settings: read-out: PPB (converted)
[12] = Volume of distribution at steady state in CD-1 mouse at 1 mg/kg, po or 1 mg/kg, iv measured upto 24 hrs by LC-MS/MS analysis; assay type: ADME, organism-based; settings: in vivo
[13] = Half life in CD-1 mouse at 1 mg/kg, iv measured upto 24 hrs by LC-MS/MS analysis; assay type: ADME, organism-based; settings: in vivo
[14] = Oral bioavailability in cynomolgus monkey at 1 mg/kg measured upto 24 hrs by LC-MS/MS analysis; assay type: ADME, organism-based, Macaca fascicularis; settings: in vivo
[15] = Oral bioavailability in Beagle dog at 1 mg/kg measured upto 24 hrs by LC-MS/MS analysis; assay type: ADME, organism-based, Canis lupus familiaris; settings: in vivo
[16] = Half life in Sprague-Dawley rat at 1 mg/kg, iv measured upto 24 hrs by LC-MS/MS analysis; assay type: ADME, organism-based; settings: in vivo
[17] = Plasma protein binding in mouse relative to control; assay type: ADME, cell-free; settings: read-out: PPB (converted)
[18] = Oral bioavailability in CD-1 mouse at 1 mg/kg measured upto 24 hrs by LC-MS/MS analysis; assay type: ADME, organism-based; settings: in vivo
[19] = Volume of distribution at steady state in Sprague-Dawley rat at 1 mg/kg, po or 1 mg/kg, iv measured upto 24 hrs by LC-MS/MS analysis; assay type: ADME, organism-based; settings: in vivo
[20] = Solubility of compound at pH 1.50 to 7.50 by RP-HPLC analysis; assay type: physicochemical; settings: buffer, pH 1.5
[21] = Oral bioavailability in Sprague-Dawley rat at 1 mg/kg measured upto 24 hrs by LC-MS/MS analysis; assay type: ADME, organism-based; settings: in vivo
[22] = Renal toxicity in cynomolgus monkey assessed as minimal thymic lymphoid depletion at >= 300 mg/kg/day measured for 14 days; assay type: organism-based, Macaca fascicularis; settings: in vivo, 336 h, time 14 day
[23] = Half life in cynomolgus monkey at 1 mg/kg, iv measured upto 24 hrs by LC-MS/MS analysis; assay type: ADME, organism-based, Macaca fascicularis; settings: in vivo
[24] = Kinetic solubility of compound; assay type: physicochemical; settings: read-out: Kinetic_solubility
hERG (KCNH2) [25] = target: T1, hERG (KCNH2); test: Inhibition of hERG at 1 uM relative to control; assay type: toxicity
Rattus norvegicus = test: Anti-allodynic activity in MSU-induced Wistar rat gouty arthritis model assessed as mechanical allodynia at 50 mg/kg, iv administered once daily for 7 days and measured on day 2; assay type: functional, organism-based; settings: time 7.0 day
[26] = Cytotoxicity against human hepatocyte; assay type: toxicity, cell-based; settings: hepatocytes
[27] = Renal toxicity in cynomolgus monkey assessed as increase in blood urea nitrogen at 100 to 300 mg/kg/day for 14 days; assay type: organism-based, Macaca fascicularis; settings: in vivo, 336 h, dose 100-300 mg/kg/day, time 14 day
[28] = Renal toxicity in cynomolgus monkey assessed as retrograde nephropathy at 100 to 300 mg/kg/day for 14 days; assay type: organism-based, Macaca fascicularis; settings: in vivo, 336 h, dose 100-300 mg/kg/day, time 14 day
[29] = Renal toxicity in cynomolgus monkey at 100 mg/kg/day for 14 days; assay type: organism-based, Macaca fascicularis; settings: in vivo, 336 h, time 14 day
[30] = Renal toxicity in cynomolgus monkey assessed as increase in kidney weight at 100 to 300 mg/kg/day for 14 days; assay type: organism-based, Macaca fascicularis; settings: in vivo, 336 h, dose 100-300 mg/kg/day, time 14 day

Row | Papp A→B [1] | fraction unbound [2] | half-life [5] | Vdss [6] | fraction unbound [7] | fraction unbound [9] | Vdss [10] | fraction unbound [11] | Vdss [12] | half-life [13] | bioavailability [14] | bioavailability [15] | half-life [16] | fraction unbound [17] | bioavailability [18] | Vdss [19] | solubility [20] | bioavailability [21] | half-life [23] | SMILES | inhibition at 10 µM (hERG (KCNH2) [4]) | also measured
1 | 0.077 ×10⁻⁶ cm/s | 0.044 | 0.99 h | 0.67 L/kg | 0.082 | 0.07 | 0.18 L/kg | 0.114 | 0.72 L/kg | 1.2 h | 53% | 78% | 4.4 h | 0.024 | 80% | 0.29 L/kg | Soluble | 33% | 0.89 h | CN[C@@H]1COc2c(S(=O)(=O)NC(=O)Nc3c4c(cc5c3CCC5)CCC4)cnn2C1 | 0.2% | Activity [3]: Non-Toxic; Activity [8]: Non-Toxic; Activity [22]: Non-Toxic; solubility kinetic at 24 h [24]: 105 µM (≈ 45.3 µg/mL); inhibition at 1 µM (hERG (KCNH2) [25]): -3.1%
2 | – | – | – | – | – | – | – | – | – | – | – | – | – | – | – | – | – | – | – | C=CC1=C(C(=O)O)N2C(=O)[C@@H](NC(=O)/C(=N\OCOC(=O)C(C)(C)C)c3csc(N)n3)C2SC1 (stereo partly drawn) | – | Activity (Rattus norvegicus): Active
3 | 1.8 ×10⁻⁶ cm/s | 0.014 | 2.9 h | 0.2 L/kg | 0.04 | 0.014 | 0.08 L/kg | 0.045 | 0.2 L/kg | 1.9 h | 17% | 28% | 1.1 h | 0.009 | 18% | 0.2 L/kg | Soluble | 30% | 1.4 h | O=C(Nc1c2c(cc3c1CCC3)CCC2)NS(=O)(=O)c1cnn2c1OCCC2 [JT-001] | 9.7% | pIC50 [26]: < 4.00; Activity [27]: Toxic; Activity [28]: Toxic; Activity [29]: Toxic; Activity [30]: Toxic; solubility kinetic at 24 h [24]: 102 µM (≈ 41.1 µg/mL); inhibition at 1 µM (hERG (KCNH2) [25]): 4.1%
